# Test results published in patent US20240294467A1, “USP9X Inhibitors” (ProDeg, LLC, priority 2021, published 2024).
# What was measured:
# [1] = biological target: USP28 (Homo sapiens (Human), UniProt Q96RU2); test: DUB selectivity panel using ubiquitin-AMC; format: biochemical
# Source text: (§1) Compounds were screened for DUB inhibitory and apoptotic activity against other deubiquitylases in a DUB selectivity panel using ubiquitin-AMC (BPS Bioscience Inc.).
# [2] = biological target: USP25 (Homo sapiens (Human), UniProt Q9UHP3); test: DUB selectivity panel using ubiquitin-AMC; format: biochemical; conditions: 5 μM compound, 500 nM Ubiquitin-AMC
# Source text: as §1
# [3] = biological target: USP2 (Homo sapiens (Human), UniProt O75604); test: DUB selectivity panel using ubiquitin-AMC; format: biochemical
# Source text: as §1
# [4] = biological target: USP15 (Homo sapiens (Human), UniProt Q9Y4E8); test: DUB selectivity panel using ubiquitin-AMC; format: biochemical; conditions: 5 μM compound, 500 nM Ubiquitin-AMC
# Source text: as §1
# [5] = biological target: VCPIP (Homo sapiens (Human), UniProt Q96JH7); test: DUB selectivity panel using ubiquitin-AMC; format: biochemical; conditions: 5 μM compound, 500 nM Ubiquitin-AMC
# Source text: as §1
# [6] = biological target: USP4 (Homo sapiens (Human), UniProt Q13107); test: DUB selectivity panel using ubiquitin-AMC; format: biochemical; conditions: 5 μM compound, 500 nM Ubiquitin-AMC
# Source text: as §1
# [7] = biological target: CYLD (Homo sapiens (Human), UniProt Q9NQC7); test: DUB selectivity panel using ubiquitin-AMC; format: biochemical; conditions: 5 μM compound, 500 nM Ubiquitin-AMC
# Source text: as §1
# [8] = biological target: USP5 (Homo sapiens (Human), UniProt P45974); test: DUB selectivity panel using ubiquitin-AMC; format: biochemical; conditions: 5 μM compound, 500 nM Ubiquitin-AMC
# Source text: as §1
# [9] = biological target: USP13 (Homo sapiens (Human), UniProt Q92995); test: DUB selectivity panel using ubiquitin-AMC; format: biochemical; conditions: 5 μM compound, 500 nM Ubiquitin-AMC
# Source text: as §1
# [10] = test system: MDA-MB-231 cells; test: WST-1 cell viability assay; format: cell-based; conditions: co-treatment of 10 μM Compound 5A
# Method: (§2) Compound Compound 9A was tested for the ability to inhibit the proliferation of Mia-Paca-2 pancreatic cancer cells. Mia-Paca-2 and MDA-MB-231 cells were seeded into the wells of a 96 well tissue culture plate in complete medium (10% fetal calf serum) and incubated overnight at 37° C./5% CO2). The medium was exchanged for fresh medium containing varying concentrations of Compound 9A and the plate was incubated for 72 hours at 37° C./5% CO2. The viability of cells at the end of this incubation was assessed with the WST-1 reagent. To 10 ml of warm (37° C.) complete medium, 1 ml WST-1 reagent was added. The medium from the wells of the plate with the Mia-Paca-2 cells was removed and replaced with 100 μL of the WST-1 reagent in complete medium. The plate was incubated at 37 37° C./5% CO2. At timed intervals the absorbance at 450 nm was determined for each well in a UVNis plate reader. For each well the slope of the plot of the absorbance 450 nm vs time was determined. The readings were normalized to that of the wells for the untreated control and a dose-response curve was plotted. A fit to the data was made from a four parameter, variable slope program (GraphPad Prism) and the IC50 was determined.
# The TNBC cell line MDA-MB-231 express high levels of Mcl-1 and USP9X in addition to Bcl-2 and Bcl-xL. MDA-MB-231 cells were treated with ABT737 for 72 hours at varying concentrations and underwent western blot analysis.
# [11] = test system: Mcl-1; test: Capture ELISA of Mcl-1 and ubiquitylated Mcl-1 in MIA-PaCa-2 cells; format: cell-based, human; conditions: 24 hours
# Method: MIA-PaCa-2 cells were treated with Compound 7A at 25 μM, 12.5 μM, 6.25 μM, and 3.125 μM, respectively, for 24 hours. Capture ELISA of Mcl-1 was performed using a dilution series of MIA-PaCa-2 cell lysates equalized for total protein in a 96-well plate coated with sheep anti-human Mcl-1 (R&D Systems, #AF8281). Detection of Mcl-1 was performed using biotinylated sheep anti-human Mcl-1 followed by streptavidin-horseradish peroxidase and TMB development. For detection of ubiquitylated Mcl-1 the same capture conditions were used but employing a biotinylated mouse anti-human ubiquitin antibody (R&D Systems, #MAB701), again detecting with streptavidin-horseradish peroxidase and TMB development. Lysate samples were run in triplicate and percentages were calculated based on the signal generated from cell lysates with no compound added (vehicle control samples). […] With 12.5 μM Compound 7A, Mcl-1 declined by about 25.0% whereas ubiquitylated Mcl-1 increased by about 14.0%.
# [12] = test system: 66 cancer cell lines; test: ONCOLINES Profiler, whole panel; format: cell-based
# Source text: The sensitivities of multiple cancer cells can be determined by screening the compounds on a cancer cell line panel, such as an ONCOLINES™ Profiler (Netherlands Translational Research Center) assayed with various tumor cell lines. For more information on ONCOLINES™ methods, see https://www.oncolines.com/oncolines/oncolines-explained-facts/. […] For example, Compound 7A inhibited the proliferation of 57 of the 66 cell lines being tested. […] “A tumor cell line sensitive to the compounds” is referred to that the proliferation of a tumor cell line, when contacted with the compounds, is inhibited by at least 50%, at least 60%, at least 70%, at least 80%, at least 85%, at least 90%, at least 91%, at least 92%, at least 93%, at least 94%, at least 95%, at least 96%, at least 97%, at least 98%, at least 99%, or 100%.
# The compounds were profiled on an ONCOLINES™ Profiler (Netherlands Translational Research Center) assayed with 66 cancer cell lines to determine if they were capable of inhibiting the proliferation of these cancer cells.
# To further evaluate potency of the compounds, they were compared with the USP9X inhibitor WP 1130 by screening both the compounds and WP1130 on a 66-cancer cell line panel ONCOLINES™ Profiler.
# [13] = test system: SK-BR3 breast cancer cells; test: WST-1 cell viability assay; format: cell-based; conditions: Homo sapiens, SK-BR-3, 72-hour treatment, read-out: IC50, inhibiting proliferation
# Method: as §2
# Another substrate of USP9X is the receptor tyrosine kinase erbB2. […] The breast cancer cell line SK-BR3 expresses high levels of erbB2. […]
# [14] = test system: erbB2; test: Western blot of erbB2 in SK-BR3 cells; format: cell-based, human; conditions: 72-hour treatment, 10 μm
# Method: Another substrate of USP9X is the receptor tyrosine kinase erbB2. […] The breast cancer cell line SK-BR3 expresses high levels of erbB2. This cell line was treated with Compound 7A and the effects on cell viability as well as expression levels of erbB2 were examined.
# Compound 7A inhibited the viability of SK-BR3. The levels of erbB2 were determined by Western blot and found to decrease in parallel with the decline in cell viability. After 72-hour treatment of 10 μm Compound 7A, the level of erbB2 declined to about zero. The loss of erbB2 from the plasma membrane was also confirmed by flow cytometry.
# [15] = 5 μM compound, 500 nM Ubiquitin-AMC
# USP2, sequence (O75604 whole entry): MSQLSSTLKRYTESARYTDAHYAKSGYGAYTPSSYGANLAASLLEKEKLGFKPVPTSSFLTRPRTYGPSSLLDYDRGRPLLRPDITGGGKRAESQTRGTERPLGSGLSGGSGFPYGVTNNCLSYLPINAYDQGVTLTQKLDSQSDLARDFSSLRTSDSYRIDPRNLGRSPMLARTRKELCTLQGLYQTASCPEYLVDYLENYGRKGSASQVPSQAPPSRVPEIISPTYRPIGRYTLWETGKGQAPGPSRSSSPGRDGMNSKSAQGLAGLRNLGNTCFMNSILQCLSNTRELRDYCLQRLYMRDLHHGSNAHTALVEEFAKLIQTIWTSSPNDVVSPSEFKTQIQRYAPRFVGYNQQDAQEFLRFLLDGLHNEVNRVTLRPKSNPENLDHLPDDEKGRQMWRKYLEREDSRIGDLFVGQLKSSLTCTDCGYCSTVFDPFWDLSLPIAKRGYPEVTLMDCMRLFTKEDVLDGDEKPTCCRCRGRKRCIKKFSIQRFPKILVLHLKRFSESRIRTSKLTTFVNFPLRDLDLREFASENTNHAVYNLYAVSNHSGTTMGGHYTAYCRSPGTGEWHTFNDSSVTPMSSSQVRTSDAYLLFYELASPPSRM
# CYLD, sequence (Q9NQC7 whole entry): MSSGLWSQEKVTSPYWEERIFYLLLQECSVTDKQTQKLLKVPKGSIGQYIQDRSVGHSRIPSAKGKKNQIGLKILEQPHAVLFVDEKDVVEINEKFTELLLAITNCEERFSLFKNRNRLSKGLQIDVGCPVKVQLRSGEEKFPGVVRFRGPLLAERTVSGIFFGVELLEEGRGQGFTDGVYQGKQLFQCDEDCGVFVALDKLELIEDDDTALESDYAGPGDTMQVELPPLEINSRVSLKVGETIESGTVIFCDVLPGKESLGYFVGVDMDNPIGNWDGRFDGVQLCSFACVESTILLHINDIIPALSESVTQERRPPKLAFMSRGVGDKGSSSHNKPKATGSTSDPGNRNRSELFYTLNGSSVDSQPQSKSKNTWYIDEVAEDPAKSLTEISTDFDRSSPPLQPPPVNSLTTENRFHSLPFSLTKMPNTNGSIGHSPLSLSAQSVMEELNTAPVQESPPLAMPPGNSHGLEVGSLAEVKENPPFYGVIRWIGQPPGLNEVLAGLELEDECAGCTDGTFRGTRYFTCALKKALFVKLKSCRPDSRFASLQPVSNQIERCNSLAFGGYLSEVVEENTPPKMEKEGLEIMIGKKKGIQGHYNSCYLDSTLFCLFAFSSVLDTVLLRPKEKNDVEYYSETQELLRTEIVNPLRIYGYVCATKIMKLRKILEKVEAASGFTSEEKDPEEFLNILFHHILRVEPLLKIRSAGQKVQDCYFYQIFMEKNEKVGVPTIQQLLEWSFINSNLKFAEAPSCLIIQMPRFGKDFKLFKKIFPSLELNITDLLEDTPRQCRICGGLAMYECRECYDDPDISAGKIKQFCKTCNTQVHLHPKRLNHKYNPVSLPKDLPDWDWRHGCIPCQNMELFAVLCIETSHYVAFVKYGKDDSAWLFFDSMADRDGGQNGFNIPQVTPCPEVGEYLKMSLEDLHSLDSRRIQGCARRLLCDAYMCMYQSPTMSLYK
# USP5, sequence (P45974 whole entry): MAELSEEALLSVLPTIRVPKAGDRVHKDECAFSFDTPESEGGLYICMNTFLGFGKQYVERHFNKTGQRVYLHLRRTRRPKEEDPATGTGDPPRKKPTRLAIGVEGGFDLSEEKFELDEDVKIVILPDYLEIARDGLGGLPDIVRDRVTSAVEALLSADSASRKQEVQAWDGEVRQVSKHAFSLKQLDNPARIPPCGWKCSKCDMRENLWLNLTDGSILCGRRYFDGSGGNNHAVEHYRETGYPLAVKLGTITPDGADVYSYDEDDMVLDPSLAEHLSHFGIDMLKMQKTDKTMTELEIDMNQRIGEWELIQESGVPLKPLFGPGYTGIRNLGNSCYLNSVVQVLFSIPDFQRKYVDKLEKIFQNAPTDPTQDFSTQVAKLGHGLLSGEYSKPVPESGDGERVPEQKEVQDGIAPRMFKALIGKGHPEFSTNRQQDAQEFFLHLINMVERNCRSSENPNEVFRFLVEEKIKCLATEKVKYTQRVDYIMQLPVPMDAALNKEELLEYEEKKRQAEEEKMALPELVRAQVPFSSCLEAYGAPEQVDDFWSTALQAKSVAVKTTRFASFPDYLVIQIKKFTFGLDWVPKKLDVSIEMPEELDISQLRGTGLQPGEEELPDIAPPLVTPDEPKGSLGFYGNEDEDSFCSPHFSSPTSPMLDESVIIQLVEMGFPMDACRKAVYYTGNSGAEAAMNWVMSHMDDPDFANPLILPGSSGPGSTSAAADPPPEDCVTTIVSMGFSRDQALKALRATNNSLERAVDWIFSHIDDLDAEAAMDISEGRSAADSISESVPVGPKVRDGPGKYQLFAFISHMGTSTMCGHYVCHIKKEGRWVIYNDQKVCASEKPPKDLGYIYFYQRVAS
# USP13, sequence (Q92995 whole entry): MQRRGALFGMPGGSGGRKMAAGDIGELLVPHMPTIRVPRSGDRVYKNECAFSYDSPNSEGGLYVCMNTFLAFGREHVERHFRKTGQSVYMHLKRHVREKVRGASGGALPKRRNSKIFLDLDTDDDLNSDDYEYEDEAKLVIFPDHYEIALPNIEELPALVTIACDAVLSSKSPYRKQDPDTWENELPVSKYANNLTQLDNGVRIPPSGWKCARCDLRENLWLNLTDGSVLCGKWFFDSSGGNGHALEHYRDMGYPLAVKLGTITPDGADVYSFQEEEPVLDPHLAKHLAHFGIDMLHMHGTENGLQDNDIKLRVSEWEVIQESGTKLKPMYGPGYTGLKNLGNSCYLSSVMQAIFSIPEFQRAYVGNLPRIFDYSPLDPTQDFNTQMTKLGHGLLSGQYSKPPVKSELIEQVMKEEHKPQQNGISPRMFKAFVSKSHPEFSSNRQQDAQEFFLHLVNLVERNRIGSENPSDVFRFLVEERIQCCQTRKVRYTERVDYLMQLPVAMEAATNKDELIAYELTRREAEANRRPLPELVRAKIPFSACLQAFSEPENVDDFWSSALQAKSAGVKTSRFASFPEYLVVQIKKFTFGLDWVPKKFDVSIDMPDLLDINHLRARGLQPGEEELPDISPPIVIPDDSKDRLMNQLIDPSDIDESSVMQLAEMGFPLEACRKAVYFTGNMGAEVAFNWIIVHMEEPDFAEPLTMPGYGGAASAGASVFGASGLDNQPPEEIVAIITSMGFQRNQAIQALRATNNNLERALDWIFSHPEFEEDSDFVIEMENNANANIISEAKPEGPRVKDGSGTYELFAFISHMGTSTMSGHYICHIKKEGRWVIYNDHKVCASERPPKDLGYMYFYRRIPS
# USP25, sequence (Q9UHP3 whole entry): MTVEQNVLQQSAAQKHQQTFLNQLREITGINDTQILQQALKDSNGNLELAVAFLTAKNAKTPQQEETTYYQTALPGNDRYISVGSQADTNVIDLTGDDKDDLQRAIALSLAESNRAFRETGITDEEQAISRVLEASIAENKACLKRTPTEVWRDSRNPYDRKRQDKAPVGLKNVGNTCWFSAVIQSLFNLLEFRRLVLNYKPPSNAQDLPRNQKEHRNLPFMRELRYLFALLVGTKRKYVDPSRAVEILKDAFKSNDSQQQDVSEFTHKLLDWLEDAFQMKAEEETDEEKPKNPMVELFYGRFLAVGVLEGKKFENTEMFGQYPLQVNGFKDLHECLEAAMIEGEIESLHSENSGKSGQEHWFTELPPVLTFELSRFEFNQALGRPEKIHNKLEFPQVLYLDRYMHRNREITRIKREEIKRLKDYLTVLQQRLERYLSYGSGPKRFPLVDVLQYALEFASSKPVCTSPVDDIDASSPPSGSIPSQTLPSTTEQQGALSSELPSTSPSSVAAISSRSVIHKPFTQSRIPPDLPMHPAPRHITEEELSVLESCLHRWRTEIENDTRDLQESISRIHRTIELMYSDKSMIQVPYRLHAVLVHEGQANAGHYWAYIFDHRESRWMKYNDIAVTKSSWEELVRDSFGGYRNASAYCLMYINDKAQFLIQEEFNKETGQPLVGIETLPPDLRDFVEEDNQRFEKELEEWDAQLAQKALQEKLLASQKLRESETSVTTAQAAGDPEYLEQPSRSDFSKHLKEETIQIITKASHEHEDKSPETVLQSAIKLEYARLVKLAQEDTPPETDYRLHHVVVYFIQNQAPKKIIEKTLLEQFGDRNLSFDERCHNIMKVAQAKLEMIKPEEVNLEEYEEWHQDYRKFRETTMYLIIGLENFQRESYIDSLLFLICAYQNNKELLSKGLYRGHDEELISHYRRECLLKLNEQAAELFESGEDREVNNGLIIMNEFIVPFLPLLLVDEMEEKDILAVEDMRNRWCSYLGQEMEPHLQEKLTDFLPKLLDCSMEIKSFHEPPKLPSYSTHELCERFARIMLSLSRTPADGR
smiles,measurement,setting,value
CN1CCOc2ccc(cc2)C(=O)NCc2cccc(c2)C(=O)N[C@@H](CC(C)(C)C)C(=O)Nc2ccc(cc2)CCN(C)C(=O)CC(C)(C)CC1=O [Compound 5A],IC50,[1],15 µM
same,inhibition at 5 µM,[2],0%
same,inhibition of USP25,[2],no detectable effect
same,IC50,[3],> 50 µM
same,inhibition at 5 µM,[3]; [15],0%
same,inhibition of USP2,[3]; [15],no detectable effect
same,inhibition at 5 µM,[4],< 2%
same,inhibition at 5 µM,[5],< 3%
same,inhibition at 5 µM,[6],0%
same,inhibition of USP4,[6],no detectable effect
same,inhibition at 5 µM,[7],0%
same,inhibition of CYLD,[7],no detectable effect
same,inhibition at 5 µM,[8],0%
same,inhibition of USP5,[8],no detectable effect
same,inhibition at 5 µM,[9],0%
same,inhibition of USP13,[9],no detectable effect
same,enhancement in ABT737's potency / sensitivity of cells to ABT737,[10],5 fold
CN1CCOc2ccc(cc2)C(=O)NCc2ccc(F)c(c2)C(=O)N[C@@H](CC(C)(C)C)C(=O)Nc2ccc(cc2)CCN(C)C(=O)CC(C)(C)CC1=O [Compound 7A],Mcl-1 decline,[11]; 12.5 μM,about 25.0%
same,ubiquitylated Mcl-1 increase,[11]; 12.5 μM,about 14.0%
same,Mcl-1 decline,[11]; 25 μM,about 23.0%
same,ubiquitylated Mcl-1 increase,[11]; 25 μM,about 27.5%
same,"cancer cell lines sensitive / proliferation inhibited, of 66",[12]; 66 cell lines tested,57
same,activity,"[12]; in 3 of 66 cell lines, high Bcl-xL",inactive
same,fold more potent than WP 1130,[12]; in 12 of 66 cell lines,about 4 fold
same,IC50,[13],2.7 µM
same,level of erbB2 declined to,[14],about zero
